Measured values published in US20050281745A1, “Stable isotope based dynamic metabolic profiling of living organisms for characterization of metabolic diseases, drug testing and drug development” (priority 2002, published 2005).

Tested on: pentose cycle, glucose activation and fatty acid synthesis pathways
Test: stable isotope ([1,2-13C2]glucose) based dynamic metabolic profiling
Type: cell-based
Details: for cell proliferation rates / nucleic acid ribose synthesis through the non-oxidative steps of the pentose cycle: metabolic profile induced by cell transforming agents
Excerpt: The present invention comprises, for example, the use of the stable [1,2-^13C2]glucose tracer for metabolic pathway analyses in cultures of mammalian cells, bacteria, virus hosting cells, phage hosting bacteria, tissue slices, perfused organs, living animals or humans. The invention provides a dynamic and comprehensive metabolic profiling technique by using specifically labeled glucose substrate isotopes which not only turn into intermediary metabolites but also produce mass isotopomers of these metabolites which can be separated, measured and quantitated using liquid and gas chromatography separation and mass spectrometry (GC/MS), other mass spectrometric analysis or nuclear magnetic resonance (NMR) instruments.
After treatments, while incubating with the isotope labeled glucose substrate, the profiling study may begin with the separation of cell pellets, cell culture media, blood plasma/serum or body fluids. The cell culture media may then be used for lactate and glutamate analyses. Lactate is an abundant cell media component of the 3 carbon metabolite pool of the cell. It is used to determine the relative activity of pentose cycle glucose oxidation and recycling into glycolysis, as the percent of substrate flux through glycolysis, also known as the Embden-Meyerhoff-Parnas pathway. Glutamate label accumulation represents tricarboxylic acid (TCA) cycle carbon substrate flow. Nucleic acid ribose and deoxyribose are used to determine cell viability (ribose) and cell proliferation (deoxyribose).
Cell cycle progression and the frequency of cell divisions are determined by the accumulation of ^13C label into deoxyribose, while cell viability, apoptosis and necrosis are determined by the differential incorporation of ^13C into ribose and deoxyribose. The major advantage of our label system introduced herein is that we can differentiate between glucose oxidation and nonoxidative ribose/deoxyribose synthesis during nucleic acid production in disease and health as well as during drug testing. Glycogen glucose represents glycogen synthesis, which can originate from activated glucose (direct glycogen synthesis) or indirectly from pentoses after glucose oxidation in the pentose cycle. Non-essential fatty acids of the saturated and desaturated kinds indicate the rate of de novo fatty acid synthesis from glucose and the contribution of fatty acid synthase, chain elongase and desaturase to cell differentiation, hormone synthesis and drug effects.
The details of how the invention can be carried out can be better understood by reference to the figures. […] Glucose activation via hexokinase/glucokinase and the formation of fructose-1,6-bis phosphate maintain the ^13C labeled carbons in the 1st and 2nd positions. ^13C-labeled carbon positions derived from [1,2-^13C2]glucose are shown by the “13” superscript, while ^12C native-labeled carbon positions are shown by the “12” superscript. Participating enzymes are italicized in all of the figures. Thus, a single version of the invention can be carried out by creating two separate cell culture systems. The first system is a control system which includes the ^13C labeled glucose which may be [1,2-^13C2] glucose. […]

Cc1ccc(NC(=O)c2ccc(CN3CCN(C)CC3)cc2)cc1Nc1nccc(-c2cccnc2)n1 [Gleevec]
glucose activation and oxidative and non-oxidative ribose synthesis from glucose (metabolic profile of anticancer compounds, associated with effective tumor growth control): inhibited

transforming growth factor beta [TGF-beta]
cell proliferation rates: increased | nucleic acid ribose synthesis through the non-oxidative steps of the pentose cycle: intense

CCOP(=S)(NC(C)C)Oc1ccccc1C(=O)OC(C)C (centres unmarked) [isofenphos]
cell proliferation rates: increased | nucleic acid ribose synthesis through the non-oxidative steps of the pentose cycle: intense
